Among the data in BindingDB's records for doi:10.1016/j.bmcl.2009.06.075 (Pfizer, 2009) are IC50 values, retold here.

As a reminder, the pIC50 is the IC50 on a negative log10 scale, so that one unit is a factor of ten.

pIC50: −log10 of the molar value.

The nature of the experiment: Antagonist activity at human P2Y12 receptor assessed as inhibition of ADP-induced platelet-rich plasma aggregation by turbidimetric method.
As for `CCOC(=O)N1CCN(C(=O)[C@H](CCC(=O)O)NC(=O)c2cc(OCCO)cc(-c3ccccc3)n2)CC1` [(4S)5-[4-(Ethoxycarbonyl)iperazin-1-yl]-4-({[4-(2-hydroxyethoxy)6-phenylpyridin-2-yl]carbonyl}amino)5-oxopentanoicAcid], the pIC50 is 5.12.
In the case of `CCOC(=O)N1CCN(C(=O)[C@H](CCC(=O)O)NC(=O)c2cc(OCCCO)cc(-c3ccccc3)n2)CC1` [(4S)5-[4-(Ethoxycarbonyl)iperazin-1-yl]-4-({[4-(3-hydroxypropoxy)6-phenylpyridin-2-yl]carbonyl}amino)5-oxopentanoic Acid], the pIC50 was 5.05.
In the case of `CCOC(=O)N1CCN(C(=O)[C@H](CCC(=O)O)NC(=O)c2cc(N3CCC(O)CC3)cc(-c3ccccc3)n2)CC1` [(4S)5-[4-(Ethoxycarbonyl)piperazin-1-yl]-4-({[4-(4-hydroxypiperidin-1-yl)6-phenylpyridin-2-yl]carbonyl}amino)5-oxopentanoicAcid], the pIC50 was 5.01.
The value for `CCOC(=O)N1CCN(C(=O)[C@H](CCC(=O)O)NC(=O)c2cc(NC)cc(-c3ccccc3)n2)CC1` [(4S)5-[4-(Ethoxycarbonyl)piperazin-1-yl]-4-({[4-(methylamino)6-phenylpyridin-2-yl]carbonyl}amino)5-oxopentanoic Acid] was 4.35; that for `CCOC(=O)N1CCN(C(=O)[C@H](CCC(=O)O)NC(=O)c2cc(N3CCC(COC)CC3)cc(-c3ccccc3)n2)CC1` [(4S)5-[4-(Ethoxycarbonyl)piperazin-1-yl]-4-[({4-[4-(methoxymethyl)piperidin-1-yl]-6-phenylpyridin-2-yl}carbonyl)amino]-5-oxopentanoic Acid] was 5.00.
The same measure for `CCOC(=O)N1CCN(C(=O)[C@H](CCC(=O)O)NC(=O)c2cc(N3CCC(N4CCCC4)CC3)cc(-c3ccccc3)n2)CC1` [(4S)5-[4-(Ethoxycarbonyl)piperazin-1-yl]-5-oxo-4-({[6-phenyl-4-(4-pyrrolidin-1-ylpiperidin-1-yl)pyridin-2-yl]carbonyl}amino)pentanoic Acid]: 5.70.
The same measure for `CCCCCCCCOC(=O)N1CCN(C(=O)[C@H](CCC(=O)O)NC(=O)c2cccc(-c3ccccc3)n2)CC1` [(4S)5-{4-[(Octyloxy)carbonyl]piperazin-1-yl}-5-oxo-4-{[(6-phenylpyridin-2-yl)carbonyl]amino}pentanoic Acid]: under 4.00; for `CCOC(=O)N1CCN(C(=O)[C@H](CCC(=O)O)NC(=O)c2cc(OC(CC)C(=O)N(CC)CC)cc(-c3ccccc3)n2)CC1` (stereo partly drawn) [(4S)-4-(4-(1-(diethylamino)-1-oxobutan-2-yloxy)-6-phenylpicolinamido)-5-(4-(ethoxycarbonyl)piperazin-1-yl)-5-oxopentanoic acid]: 5.52; for `Cc1cccc(N2CCN(C(=O)[C@H](CCC(=O)O)NC(=O)c3cc(-c4ccccc4)cc(-c4ccccc4)n3)CC2)c1` [(S)-4-(4,6-diphenylpicolinamido)-5-oxo-5-(4-m-tolylpiperazin-1-yl)pentanoic acid]: under 4.00.
For `CCOC(=O)N1CCN(C(=O)[C@H](CCC(=O)O)NC(=O)c2cc(NCCN(C)C)cc(-c3ccccc3)n2)CC1` [(S)-4-(4-(2-(dimethylamino)ethylamino)-6-phenylpicolinamido)-5-(4-(ethoxycarbonyl)piperazin-1-yl)-5-oxopentanoic acid], the pIC50 is 4.44.
The same measure for `CC(C)OC(=O)N1CCN(C(=O)[C@H](CCC(=O)O)NC(=O)c2cc(OCCO)cc(-c3ccccc3)n2)CC1` [(S)-4-(4-(2-hydroxyethoxy)-6-phenylpicolinamido)-5-(4-(isopropoxycarbonyl)piperazin-1-yl)-5-oxopentanoic acid]: 4.59; for `CCOC(=O)N1CCN(C(=O)[C@H](CCC(=O)O)NC(=O)c2cc(OCCCN)cc(-c3ccccc3)n2)CC1` [(S)-4-(4-(3-aminopropoxy)-6-phenylpicolinamido)-5-(4-(ethoxycarbonyl)piperazin-1-yl)-5-oxopentanoic acid]: 5.42.
Regarding `CCOC(=O)N1CCN(C(=O)[C@H](CCC(=O)O)NC(=O)c2cc(N3CCN(CCN(C)C)CC3)cc(-c3ccccc3)n2)CC1` [(S)-4-(4-(4-(2-(dimethylamino)ethyl)piperazin-1-yl)-6-phenylpicolinamido)-5-(4-(ethoxycarbonyl)piperazin-1-yl)-5-oxopentanoic acid], the negative logarithm of the IC50 (pIC50) is 5.64.
Take `NCC1CCN(c2cc(C(=O)N[C@@H](CCC(=O)O)C(=O)N3CCN(C(=O)OCCC4CCCC4)CC3)nc(-c3ccccc3)c2)CC1` [(S)-4-(4-(4-(aminomethyl)piperidin-1-yl)-6-phenylpicolinamido)-5-(4-((2-cyclopentylethoxy)carbonyl)piperazin-1-yl)-5-oxopentanoic acid]: the pIC50 is 4.85.
The value for `CCOC(=O)N1CCN(C(=O)[C@H](CCC(=O)O)NC(=O)c2cc(N3CCC(CN)CC3)cc(-c3ccccc3)n2)CC1` [(S)-4-(4-(4-(aminomethyl)piperidin-1-yl)-6-phenylpicolinamido)-5-(4-(ethoxycarbonyl)piperazin-1-yl)-5-oxopentanoic acid] was 5.48.
The same measure for `CCCCCCOC(=O)N1CCN(C(=O)[C@H](CCC(=O)O)NC(=O)c2cc(N3CCC(CN)CC3)cc(-c3ccccc3)n2)CC1` [(S)-4-(4-(4-(aminomethyl)piperidin-1-yl)-6-phenylpicolinamido)-5-(4-(hexyloxycarbonyl)piperazin-1-yl)-5-oxopentanoic acid]: 5.80; for `CCOC(=O)N1CCN(C(=O)[C@H](CCC(=O)O)NC(=O)c2cc(N3CCC(N)CC3)cc(-c3ccccc3)n2)CC1` [(S)-4-(4-(4-aminopiperidin-1-yl)-6-phenylpicolinamido)-5-(4-(ethoxycarbonyl)piperazin-1-yl)-5-oxopentanoic acid]: 5.55; for `CCCCCOC(=O)N1CCN(C(=O)[C@H](CCC(=O)O)NC(=O)c2cc(N3CCC(O)CC3)cc(-c3ccccc3)n2)CC1` [(S)-4-(4-(4-hydroxypiperidin-1-yl)-6-phenylpicolinamido)-5-oxo-5-(4-(pentyloxycarbonyl)piperazin-1-yl)pentanoic acid]: 5.62.
Consider `CCOC(=O)N1CCN(C(=O)[C@H](CCC(=O)O)NC(=O)c2cc(NCc3ccccc3)cc(-c3ccccc3)n2)CC1` [(S)-4-(4-(benzylamino)-6-phenylpicolinamido)-5-(4-(ethoxycarbonyl)piperazin-1-yl)-5-oxopentanoic acid], for which the pIC50 was 4.09.
As to `CCOC(=O)N1CCN(C(=O)[C@H](CCC(=O)O)NC(=O)c2cc(OCc3ccccc3)cc(-c3ccccc3)n2)CC1` [(S)-4-(4-(benzyloxy)-6-phenylpicolinamido)-5-(4-(ethoxycarbonyl)piperazin-1-yl)-5-oxopentanoic acid], the negative logarithm of the IC50 (pIC50) was 4.51.
The same measure for `CCOC(=O)N1CCN(C(=O)[C@H](CCC(=O)O)NC(=O)c2cc(N(CC)CC)cc(-c3ccccc3)n2)CC1` [(S)-4-(4-(diethylamino)-6-phenylpicolinamido)-5-(4-(ethoxycarbonyl)piperazin-1-yl)-5-oxopentanoic acid]: under 4.00.
`CCCCCCOC(=O)N1CCN(C(=O)[C@H](CCC(=O)O)NC(=O)c2cc(N(C)CCS(C)(=O)=O)cc(-c3ccccc3)n2)CC1` [(S)-4-(4-(methyl(2-(methylsulfonyl)ethyl)amino)-6-phenylpicolinamido)-5-oxo-5-(4-(hexyloxycarbonyl)piperazin-1-yl)pentanoic acid]: the pIC50 was 4.75.
The value for `CCCCCOC(=O)N1CCN(C(=O)[C@H](CCC(=O)O)NC(=O)c2cc(N(C)CCS(C)(=O)=O)cc(-c3ccccc3)n2)CC1` [(S)-4-(4-(methyl(2-(methylsulfonyl)ethyl)amino)-6-phenylpicolinamido)-5-oxo-5-(4-(pentyloxycarbonyl)piperazin-1-yl)pentanoic acid] was 5.39.
For `O=C(O)CC[C@H](NC(=O)c1cc(N2CCC(O)CC2)cc(-c2ccccc2)n1)C(=O)N1CCN(C(=O)OCCC2CCCC2)CC1` [(S)-5-(4-((2-cyclopentylethoxy)carbonyl)piperazin-1-yl)-4-(4-(4-hydroxypiperidin-1-yl)-6-phenylpicolinamido)-5-oxopentanoic acid], the pIC50 is 4.24.
In the case of `CN(CCS(C)(=O)=O)c1cc(C(=O)N[C@@H](CCC(=O)O)C(=O)N2CCN(C(=O)OCCC3CCCC3)CC2)nc(-c2ccccc2)c1` [(S)-5-(4-((2-cyclopentylethoxy)carbonyl)piperazin-1-yl)-4-(4-(methyl(2-(methylsulfonyl)ethyl)amino)-6-phenylpicolinamido)-5-oxopentanoic acid], the negative-log IC50 (pIC50) was 4.76.
The value for `C=CCOC(=O)N1CCN(C(=O)[C@H](CCC(=O)O)NC(=O)c2cc(OCCO)cc(-c3ccccc3)n2)CC1` [(S)-5-(4-(allyloxycarbonyl)piperazin-1-yl)-4-(4-(2-hydroxyethoxy)-6-phenylpicolinamido)-5-oxopentanoic acid] was 4.95; that for `C=CCOC(=O)N1CCN(C(=O)[C@H](CCC(=O)O)NC(=O)c2cc(OCCOC)cc(-c3ccccc3)n2)CC1` [(S)-5-(4-(allyloxycarbonyl)piperazin-1-yl)-4-(4-(2-methoxyethoxy)-6-phenylpicolinamido)-5-oxopentanoic acid] was 4.88; that for `C=CCOC(=O)N1CCN(C(=O)[C@H](CCC(=O)O)NC(=O)c2cc(OCCCC)cc(-c3ccccc3)n2)CC1` [(S)-5-(4-(allyloxycarbonyl)piperazin-1-yl)-4-(4-butoxy-6-phenylpicolinamido)-5-oxopentanoic acid] was 4.21.
As for `C=CCOC(=O)N1CCN(C(=O)[C@H](CCC(=O)O)NC(=O)c2cc(OC3CCNCC3)cc(-c3ccccc3)n2)CC1` [(S)-5-(4-(allyloxycarbonyl)piperazin-1-yl)-5-oxo-4-(6-phenyl-4-(piperidin-4-yloxy)picolinamido)pentanoic acid], the pIC50 was 5.03.
Consider `CCCCOC(=O)N1CCN(C(=O)[C@H](CCC(=O)O)NC(=O)c2cc(OCCO)cc(-c3ccccc3)n2)CC1` [(S)-5-(4-(butoxycarbonyl)piperazin-1-yl)-4-(4-(2-hydroxyethoxy)-6-phenylpicolinamido)-5-oxopentanoic acid], for which the pIC50 is 5.11.
The value for `CCCCOC(=O)N1CCN(C(=O)[C@H](CCC(=O)O)NC(=O)c2cc(OC3CCNCC3)cc(-c3ccccc3)n2)CC1` [(S)-5-(4-(butoxycarbonyl)piperazin-1-yl)-5-oxo-4-(6-phenyl-4-(piperidin-4-yloxy)picolinamido)pentanoic acid] was 5.96.
